Source: patent US12161089B2, “Parasiticidal collar comprising isoxazoline compounds” (Boehringer Ingelheim Animal Health USA Inc., priority 2020, dated 2024)

Assays:
Ctenocephalides felis = assay: In-vitro flea exposure effectiveness (contact with collar strips or treated filter papers); details: filter paper 21 cm^2 loaded with 500 μL of 10 mg/mL in acetone, 24 (±1) hours; for Geometric Mean No. Live Fleas: 3 vials; for Percentage Reduction Live Fleas: versus acetone only control; for Vial 1 # Live Fleas / Vial 2 # Live Fleas / Vial 3 # Live Fleas: approximately 20 fleas
Procedure: The in-vitro susceptibility of Ctenocephalides felis exposed to treated filter papers and to external device compositions (antiparasitic collar) containing isoxazoline active agents (S)-Ia, (S)-Id and (Ia) was determined, wherein the collars comprise a polyvinyl chloride (PVC) matrix or a polybutylene succinate (PBS) matrix.
To determine the in-vitro susceptibility of Ctenocephalides felis exposed to treated filter papers or to the collars compositions comprising the isoxazoline active agent, approximately 20 fleas were transferred to vials containing either the collars or filter papers in accordance with the test groups outlined in Table 3. On Day 0, approximately 20 fleas were placed in 27×55 mm, 5 dram glass vials containing the collars comprising the active agent as outlined in Table 3 or in 60 mm×40 mm glass vials containing treated filter papers. The filter papers tested in groups 9-12 were loaded with 500 μL of a 10 mg/mL solution containing the active agent dissolved in acetone. […] Test vials were placed in an environmental chamber at approximately 28° C. and approximately 80% RH.
The number of dead fleas in each vial were counted on Day 1 at 24 (±1) hours after initial exposure. Fleas were counted as dead if they were not able to maintain an upright posture.

[1] = Plasma drug concentrations in dogs wearing PVC based isoxazoline collars; assay type: in vivo, dog; details: 11% active, FIG. 5
Procedure: PK data: Blood samples from all the dogs were taken periodically and drug concentrations in the plasma were analyzed (depicted in FIG. 5). […] In other words, these compounds are likely acting by a systemic mechanism, even though they are applied in a topical collar dosage form. These PK data appear also to correlate with the flea and tick efficacy data in Table 6 and 7 (e.g., compound (S)-Ia is the best, (S)-Id is the second, and Ia the third).

[2] = Isoxazoline compounds in dog hair; assay type: in vivo; details: hair collected on Day 110 from 5 areas, PVC collars, FIG. 6
Description: Hair samples from each dog were collected on Day 110 from 5 different areas: (1) central thorax, (2) lower back/caudal region, (3) right thorax, (4) left thorax, and […] top of neck/base of skull above collar site. Suitable bioanalytical methods were used for analysis of the three isoxazoline compounds in dog hair. […] Results for the other two isoxazoline compounds Ia and (S)-Ia are very similar.

SMILES	Geometric Mean No. Live Fleas (Ctenocephalides felis)	Percentage Reduction Live Fleas (Ctenocephalides felis) [%]	Vial 1 # Live Fleas (Ctenocephalides felis)	Vial 2 # Live Fleas (Ctenocephalides felis)	Vial 3 # Live Fleas (Ctenocephalides felis)	PK data, order of the compounds (correlating with flea and tick efficacy) [1]	Level of the drug in dog hair, top of the neck (collar site) compared with other areas [2]	Isoxazoline compound levels in hair throughout bodies of the dogs [2]
O=C(CNC(=O)c1ccc(C2=NOC(c3cc(Cl)cc(C(F)(F)F)c3)(C(F)(F)F)C2)c2ccccc12)NCC(F)(F)F (centres unmarked) [(Ia), 4-[5-[3-chloro-5-(trifluoromethyl)phenyl]-4,5-dihydro-5-(trifluoromethyl)-3-isoxazolyl]-N-[2-oxo-2-[(2,2,2-trifluoroethyl)amino]ethyl]-1-naphthalanecarboxamide]	19.6	3.3	19	21	19	the third	very similar	
O=C(CNC(=O)c1ccc(C2=NO[C@@](c3cc(Cl)cc(C(F)(F)F)c3)(C(F)(F)F)C2)c2ccccc12)NCC(F)(F)F [(S)-Ia]	19.0	6.5	19	20	18	the best	very similar	
O=C(CNC(=O)c1ccc(C2=NO[C@@](c3cc(Cl)c(F)c(C(F)(F)F)c3)(C(F)(F)F)C2)c2ccccc12)NCC(F)(F)F [(S)-Id]						the second	highest level of the drug	detectable
